{"source": "patent US11945862B2", "about": "“Compositions and methods for antibody production” (ImmunoGen, Inc., priority 2017, dated 2024)", "key": {"[1]": {"system": "Humanized anti-folate receptor 1 (FOLR1) IgG1", "assay": "Antibody disulfide reduction by damaged CHO cell supernatant (freeze-thaw), thiol per antibody by Ellman's assay", "format": "biochemical", "conditions": "for thiol/antibody ratio: about 2.5 hours, control 5.5; for thiol per antibody: 2.2 hours", "description": "(§1) For all of the examples described below, cell damage was simulated by multiple freeze-thaw cycles of cells, by addition of RIPA buffer (50 mM Tris-HCl, pH 7.4, 1% NP-40, 0.5% sodium deoxycholate, 0.1% sodium dodecylsulfate), or by using microfluidizer. This damaged cell supernatant or lysate was then incubated with a buffered solution containing antibody with or without the anti-reduction agent being tested, following which the extent of the antibody-disulfide reduction was measured using Ellman's assay for thiol (P. W. Riddles, R. L. Blakeley, and B. Zerner, Methods Enzymol., 91, 49-60, 1983) or by non-reducing SDS protein LabChip analysis. The total thiol level present in the mixture of damaged cell supernatant/lysate was measured initially.\n(§2) A simulated, damaged CHO cell suspension was prepared using 300 million CHO cells per ml phosphate buffered saline (PBS), which was subjected to three freeze-thaw cycles under vacuum, followed by pelleting of cell debris by centrifugation, and storage of the supernatant at −80° C.\nThe concentration of thiol in the suspension of damaged CHO cells was measured as 4 mM using DTNB ((5,5′-dithiobis(2-nitrobenzoic acid); Ellman's reagent). Humanized anti-folate receptor 1 (FOLR1) IgG1 (1 mg) was immobilized on 0.05 ml of Protein A bead (RepliGen) and then treated with pre-mixed 0.5 ml PBS and 0.1 ml damaged CHO cell supernatant. The concentration of thiol in this mixture was 0.67 mM.\nThe sample was rotated for about 2.2 hours at ambient temperature, following which the supernatant was removed and the beads were washed with PBS four times (1.5 ml each). The thiol content of the immobilized antibody on the beads was then analyzed by the addition of 0.6 ml of PBS containing 0.5 mM DTNB, rotation for about 10 minutes, centrifugation, and measurement of the absorbance of the supernatant at 412 nm.\nMethylene blue was then tested at different concentrations to determine whether it could protect against disulfide bond reduction during the incubation of antibody with damaged CHO cell supernatant. FIG. 1 is a graph showing the results of immobilized 1 mg humanized IgG1 with pre-mixed 0.5 ml PBS and 0.1 ml damaged CHO cell supernatant in the presence of methylene blue, rotation for 2.2 hours at ambient temperature, and a similar thiol analysis of immobilized antibody as above. Unexpectedly, very low concentrations of methylene blue (0.025 and 0.05 mM) protected against the reduction of antibody disulfide bonds.\nIn a similar experiment, a sample containing 1 mg immobilized antibody was incubated with a mixture of damaged CHO cell supernatant and 0.05 mM methylene blue for 2.2 hours, followed by washing of beads as above, after which the antibody was eluted from Protein A bead using 100 mM acetic acid containing 150 mM NaCl, neutralized to pH 7 by addition of 1.25 M […] solution. Using an aliquot of the neutralized eluted antibody sample, the thiol per antibody was measured as 0.002 thiol per antibody using DTNB, thus indicating the protection against antibody disulfide reduction by methylene blue. […]"}, "[2]": {"system": "CHO cells", "assay": "Viability of CHO cells after 1 day treatment", "conditions": "0.75 mM, control 98.9%"}, "[3]": {"system": "humanized N901 antibody", "assay": "Antibody disulfide reduction by CHO cell lysate (RIPA buffer), thiol/antibody by Ellman's assay", "format": "biochemical", "conditions": "for thiol/antibody ratio: 3 hours, lysate thiol 2.1 mM, control 5.74", "description": "as §1\nThe effect of 1,2-naphthoquinone-4-sulfonic acid (NQS) on antibody-disulfide reduction was studied by incubating 1,2-naphthoquinone-4-sulfonic acid at several concentrations with antibody and damaged CHO lysate. The damaged CHO cell lysate was generated by the addition of 0.5 ml RIPA buffer (50 mM Tris-HCl, pH 7.4, 1% NP-40, 0.5% sodium deoxycholate, 0.1% sodium dodecylsulfate) to 100 million CHO cells. The thiol concentration in CHO cell lysate was measured by Ellman's assay as 2.1 mM.\nEach sample contained pre-mixed 0.5 ml RIPA buffer (50 mM Tris-HCl, pH 7.4, 1% NP-40, 0.5% sodium deoxycholate, 0.1% sodium dodecylsulfate) with 1 mg humanized N901 antibody, with or without 1,2-naphthoquinone-4-sulfonic acid (25 micromolar, or 50 micromolar, or 100 micromolar), which was added to a cell pellet of 100 million CHO cells, and the resuspended cells were incubated at ambient temperature for 30 minutes, following which the cell debris were pelleted by centrifugation (16,000 g, 5 min). The supernatant from each sample was added to 50 microliter immobilized-Protein A beads (RepliGen) and rotated at ambient temperature for 3 hours, after which the supernatant was removed and the beads washed with PBS.\n(§3) The thiol content of the immobilized antibody was determined by the addition of 0.6 ml of PBS containing 0.5 mM DTNB (Ellman's reagent) to the beads, rotation for about 10 minutes, centrifugation, and absorbance measurement of supernatant at 412 nm.\nThe effect of anthraquinone-2-sulfonic acid (AQS) on antibody-disulfide reduction was studied during co-incubation of anthraquinone-2-sulfonic acid with antibody and damaged CHO lysate. Each sample contained pre-mixed 1 ml RIPA buffer (50 mM Tris-HCl, pH 7.4, 1% NP-40, 0.5% sodium deoxycholate, 0.1% sodium dodecylsulfate) with 1 mg humanized N901 antibody, with or without 0.2 mM anthraquinone-2-sulfonic acid (AQS), which was added to a cell pellet of 100 million CHO cells, and the resuspended cells were incubated at ambient temperature for 30 minutes, following which the cell debris were pelleted by centrifugation (16,000 g, 5 min). The thiol concentration in CHO cell lysate was 1 mM (Ellman's assay).\nas §3, with “The supernatant from each sample was added to 50 microliter immobilized-Protein A beads (RepliGen) and rotated at ambient temperature for 3 hours, after which the supernatant was removed and the beads washed with PBS. The” for “The”\nIn another experiment, 1 mg huN901 antibody was incubated with CHO lysate, with or without 0.4 mM anthraquinone-2-sulfonic acid for 4 hours. The mixture was then analyzed for thiol/antibody as above.\nThe thiol concentration in CHO cell lysate was 1 mM (Ellman's assay).\nThe supernatant from each sample was added to 50 microliter immobilized-Protein A beads (RepliGen) and rotated at ambient temperature for 3 hours, after which the supernatant was removed and the beads washed with PBS. […]"}, "[4]": {"system": "Humanized FOLR1 IgG1 antibody", "assay": "Antibody disulfide reduction by CHO cell lysate (RIPA buffer), thiol per antibody by Ellman's assay", "format": "biochemical", "conditions": "5 mM agent, 100 mM phosphate buffer pH 7, 2 hours", "protocol": "Lysates of CHO cells (˜60 million cells lysed in 0.6 ml RIPA buffer and clarified by centrifugation) were added to each of these mixtures. The pH values of all samples were adjusted to 7. […] The samples were incubated with 200 microliter immobilized-Protein A beads (RepliGen) and rotated at ambient temperature for 3 hours, after which the supernatant was removed and the beads washed with PBS. The thiol content of the immobilized antibody was determined by the addition of 0.2 ml of PBS containing 0.5 mM DTNB (Ellman's reagent) to the beads, rotation for about 10 minutes, centrifugation, and absorbance measurement of the supernatant at 412 nm.\nThe pH values of all samples were adjusted to 7. The samples were incubated with 200 microliter immobilized-Protein A beads (RepliGen) and rotated at ambient temperature for 3 hours, after which the supernatant was removed and the beads washed with PBS. The thiol content of the immobilized antibody was determined by the addition of 0.2 ml of PBS containing 0.5 mM DTNB (Ellman's reagent) to the beads, rotation for about 10 minutes, centrifugation, and absorbance measurement of the supernatant at 412 nm.\nTo test the effect of L-cystine bis(t-butyl ester) (CDBE) on protecting antibody disulfide bonds from reduction by CHO lysate, humanized FOLR1 IgG1 antibody (2 mg) was incubated with CHO lysate in RIPA buffer (0.6 ml lysate of 60 million CHO cells in 0.6 ml RIPA buffer, clarified by centrifugation) without or with 0.5 or 1 mM CDBE. The samples were rotated at ambient temperature with 200 microliter immobilized-Protein A beads (RepliGen) for 2 hours, after which the supernatant was removed and the beads washed with PBS. The thiol content of the immobilized antibody was determined by the addition of 0.2 ml of PBS containing 0.5 mM DTNB (Ellman's reagent) to the beads, centrifugation, and absorbance measurement of the supernatant at 412 nm.\nThe samples were rotated at ambient temperature with 200 microliter immobilized-Protein A beads (RepliGen) for 2 hours, after which the supernatant was removed and the beads washed with PBS. The thiol content of the immobilized antibody was determined by the addition of 0.2 ml of PBS containing 0.5 mM DTNB (Ellman's reagent) to the beads, centrifugation, and absorbance measurement of the supernatant at 412 nm."}, "[5]": {"system": "Humanized N901 (Anti-CD56 IgG1)", "assay": "Antibody disulfide reduction by damaged CHO cell supernatant (freeze-thaw), thiol per antibody by Ellman's assay", "format": "biochemical", "conditions": "for thiol per antibody: about 1.5 hours, control 6.4; for thiol per antibody / protection toward antibody-disulfide reduction: total thiol 0.8 mM; for protection toward antibody-disulfide reduction: 0.2 and 0.1 mM agent; for thiol/antibody ratio: about 2.5 hours, total thiol 0.4 mM, control 1.99", "description": "as §1, §2\nHumanized N901 (Anti-CD56 IgG1; 1 mg) was immobilized on 0.05 ml of Protein A bead (RepliGen) and then treated with pre-mixed 0.4 ml PBS and 0.1 ml damaged CHO cell supernatant (described in Example 1) with or without the addition of coenzyme Q analogs. The concentration of thiol in these mixtures was 0.8 mM.\nThe samples were rotated for about 1.5 hours at ambient temperature, following which the supernatant was removed and the beads washed with PBS three times. The thiol content of the immobilized antibody on the beads was then analyzed by the addition of 0.6 ml of mixture of PBS and 0.5 mM DTNB, rotation for about 10 minutes, centrifugation, and measurement of the absorbance of the supernatant at 412 nm. The number of thiol residues per antibody molecule after incubation with damaged CHO cell supernatant (without any coenzyme Q analog) was measured as 6.4 thiol/antibody.\nHumanized N901 IgG1 (1 mg) was immobilized on 0.05 ml of Protein A bead (RepliGen) and treated with pre-mixed 0.45 ml PBS and 0.05 ml damaged CHO cell supernatant with or without 0.1 mM and 0.2 mM disulfiram (also named as tetraethylthiuram disulfide; added using a stock solution of disulfiram in DMSO). The concentration of total thiol (derived from damaged cells) in this mixture was 0.4 mM.\nThe samples were rotated for about 2.5 hours at ambient temperature, then centrifuged to pellet beads, following which the supernatants were removed and the beads washed with PBS four times. The thiol content of the immobilized antibody on the beads was then analyzed by the addition of 0.6 ml PBS containing 0.5 mM DTNB to the beads, rotation for about 30 minutes, centrifugation, and measurement of the absorbance of the supernatant at 412 nm."}, "[6]": {"system": "M9346A antibody", "format": "biochemical", "conditions": "1 mM additive", "description": "Antibody reduction was induced in a biological assay by adding cell lysate to purified monoclonal antibody. […]. Increasing amounts of CHO cell lysate were added to mimic different percentages of cell lysis, ranging from […]. Fresh NADPH was added to a concentration of 400 μM. The mixtures were incubated in a water bath at 37° C. for 1 h. Free thiols were alkylated by addition of 10% (v/v) of 50 mM N-ethyl-maleimide (NEM) solution. Samples were analyzed by non-reduced sodium dodecyl sulfate denaturing capillary electrophoresis (NR-CE-SDS).\nTo test the capacity for protection further, the stringency of the assay was increased. […]."}, "[7]": {"assay": "Redox potential of antibody solution with media additive over a range of DTT concentrations", "format": "physicochemical", "conditions": "1 mM additive, DTT 0.34 μM to 170 μM, 37° C., 1 h"}}}
{"molecule": "O=C(O)CCCCC1CCSS1", "note": "(racemic) [lipoic acid, 1,2-dithiolane-3-pentanoic acid]", "values": [{"measurement": "thiol/antibody ratio", "setting": "[1]; 0.5 mM agent, total thiol 0.67 mM", "result": 1.88}, {"measurement": "thiol/antibody ratio", "setting": "[1]; 2 mM agent, total thiol 0.67 mM", "result": 1.08}, {"measurement": "viability of CHO cells", "setting": "[2]", "result": 98.1, "unit": "%"}]}
{"molecule": "CCOC(=O)[C@@H](N)CSSC[C@H](N)C(=O)OCC", "note": "[CDEE, L-cystine diethyl ester]", "values": [{"measurement": "thiol/antibody", "setting": "[3]; 0.75 mM agent, 4° C. overnight, control 2.29", "result": 1.02, "unit": "thiol/antibody"}]}
{"molecule": "CC(=O)N[C@@H](CSSC[C@H](NC(C)=O)C(=O)O)C(=O)O", "note": "[Di-N-acetyl L-cystine]", "values": [{"measurement": "decrease in disulfide reduction compared to the control", "setting": "[4]", "result": "about 64%"}, {"measurement": "thiol per antibody", "setting": "[4]; control 1.16", "result": "about 0.42 thiol per antibody"}]}
{"molecule": "O=C1C=C(S(=O)(=O)O)c2ccccc2C1=O", "note": "[NQS, 1,2-naphthoquinone-4-sulfonic acid]", "values": [{"measurement": "thiol/antibody ratio", "setting": "[3]; 0.025 mM agent", "result": 3.4}, {"measurement": "thiol/antibody ratio", "setting": "[3]; 0.05 mM agent", "result": 2.2}, {"measurement": "thiol/antibody ratio", "setting": "[3]; 0.1 mM agent", "result": 1.25}]}
{"molecule": "COC1=C(OC)C(=O)C(C)=CC1=O", "note": "[coenzyme Q0, 2,3-dimethoxy-5-methyl-p-benzoquinone]", "values": [{"measurement": "thiol per antibody", "setting": "[5]; 0.1 mM agent", "result": 0.63, "unit": "thiol per antibody"}, {"measurement": "thiol per antibody", "setting": "[5]; 0.2 mM agent", "result": 0.34, "unit": "thiol per antibody"}]}
{"molecule": "COC1=C(OC)C(=O)C(C/C=C(\\C)CCC=C(C)C)=C(C)C1=O", "note": "[coenzyme Q2, 2,3-dimethoxy-5-methyl-6-geranyl-p-benzoquinone]", "values": [{"measurement": "protection toward antibody-disulfide reduction", "setting": "[5]", "result": "decreased antibody disulfide-reduction"}]}
{"molecule": "COC1=C(OC)C(=O)C(C/C=C(\\C)CC/C=C(\\C)CC/C=C(\\C)CC/C=C(\\C)CC/C=C(\\C)CC/C=C(\\C)CC/C=C(\\C)CC/C=C(\\C)CC/C=C(\\C)CCC=C(C)C)=C(C)C1=O", "note": "[coenzyme Q10, reference compound]", "values": [{"measurement": "protection toward antibody-disulfide reduction", "setting": "[5]", "result": "did not show significant protection"}]}
{"molecule": "N[C@@H](CS)C(=O)O", "note": "[cysteine, reference compound]", "values": [{"measurement": "intact antibody", "setting": "[6]; lysate mimicking 120% cell lysis, 400 μM NADPH, 37° C., 1 h, control 40%", "result": "~70", "unit": "%"}, {"measurement": "modulation of redox potential", "setting": "[7]", "result": "constant redox potential at low concentrations of DTT, followed by a slow decrease at higher DTT concentrations"}]}
{"molecule": "N[C@@H](CSSC[C@H](N)C(=O)O)C(=O)O", "note": "[cystine]", "values": [{"measurement": "modulation of redox potential", "setting": "[7]", "result": "step-wise modulation of redox potential"}]}
{"molecule": "CCN(CC)C(=S)SSC(=S)N(CC)CC", "note": "[disulfiram, tetraethylthiuram disulfide, reference compound]", "values": [{"measurement": "thiol/antibody ratio", "setting": "[5]; 0.1 mM agent", "result": 0.14}, {"measurement": "thiol/antibody ratio", "setting": "[5]; 0.2 mM agent", "result": 0.03}]}
{"molecule": "CN(C)c1ccc2nc3ccc(N(C)C)cc3[s+]c2c1", "note": "[methylene blue, Methylene blue]", "values": [{"measurement": "thiol per antibody", "setting": "[1]; 0.025 mM agent, total thiol 0.67 mM, control 4.2", "result": 0.38, "unit": "thiol per antibody"}, {"measurement": "thiol per antibody", "setting": "[1]; 0.05 mM agent, antibody eluted from Protein A bead and neutralized", "result": 0.002, "unit": "thiol per antibody"}, {"measurement": "thiol per antibody", "setting": "[1]; 0.05 mM agent, total thiol 0.67 mM, control 4.2", "result": 0.33, "unit": "thiol per antibody"}]}
{"molecule": "O=S(=O)([O-])[O-].[Zn+2]", "note": "[zinc]", "values": [{"measurement": "protection at increased assay stringency", "setting": "[6]; conditions where control without additive was 100% fragmented", "result": "protective of disulfide reduction"}]}
{"molecule": "oxidized glutathione [GSSG]", "values": [{"measurement": "thiol/antibody", "setting": "[3]; 2 mM GSSG alone, 2.5 hours, lysate thiol 1 mM, control 5.63", "result": 0.98, "unit": "thiol/antibody"}]}
